For assay [1], the system named is MM1.s. Briefly: MTT viability assay, MM1.s. It is filed as cell-based. Particulars: Homo sapiens, Multiple Myeloma, read-out: IC50 Avg ± s.d. (n = 3), MM1.s. An excerpt:
(§1) Cell Lines: PC-9 cell line used was obtained from Sigma Aldrich and grown in RPMI 1640 medium with 10% fetal bovine serum and 1% penicillin/streptomycin. HCC4006, U266, MM1.s, and Beas-2B cell lines were obtained from ATCC and cultured in either RPMI 1640 or DMEM with 10% fetal bovine serum and 1% penicillin/streptomycin. All cell lines were also checked for mycoplasma every six months and subjected to short tandem repeat (STR) analysis for cell line validation. CRISPR Cas9: CRISPR Guide RNA 2 targeting ERO1α and CRISPR Guide RNA 4 were purchased from Genscript in the pLentiCRISPR V2 plasmid containing puromycin/ampicillin selection marker. Lentivirus was made from HEK 293T cells by co-transfection with GuideRNA of interest, pVSVG, and pPAX2 plasmids. […] Plate was then read on the BioTek Cytation 5 at 530/590 nm. […] Plate was then read at 570 nm. Treated wells were all compared to DMSO control wells to calculate percent growth inhibition and the IC50 was calculated using GraphPad (log(inhibitor) vs growth inhibition). […] Images were then quantified using ImageJ. […] Cells were aliquoted at 1 million cells per PCR tube in PBS and heated in Bio-Rad T100 thermal cycler at indicated temperatures (RT, 46° C., 48° C., 50° C., 52° C., 54° C., 56°, 58° C., and 60° C.) for 3 minutes and aggregation temperature was determined by western blot analysis. […]
For orientation: Tetrazolium dyes change colour on reduction, which living cells bring about.

For assay [2], the system named is normal lung epithelial cell line Beas-2B. Briefly: MTT viability assay, Beas-2B. It is filed as cell-based. The note with it: Homo sapiens, Normal Lung Epithelium.
Source text: as §1

Assay [3] deals with HCC4006. Briefly: MTT viability assay, HCC4006. It is filed as cell-based. The note with it: Homo sapiens, NSCLC (adenocarcinoma), read-out: IC50 Avg ± s.d. (n = 3), HCC4006.
Source text: as §1

Assay [4] addresses T1, MAO-A (Homo sapiens, UniProt P21397).
T1 sequence (P21397 1-527): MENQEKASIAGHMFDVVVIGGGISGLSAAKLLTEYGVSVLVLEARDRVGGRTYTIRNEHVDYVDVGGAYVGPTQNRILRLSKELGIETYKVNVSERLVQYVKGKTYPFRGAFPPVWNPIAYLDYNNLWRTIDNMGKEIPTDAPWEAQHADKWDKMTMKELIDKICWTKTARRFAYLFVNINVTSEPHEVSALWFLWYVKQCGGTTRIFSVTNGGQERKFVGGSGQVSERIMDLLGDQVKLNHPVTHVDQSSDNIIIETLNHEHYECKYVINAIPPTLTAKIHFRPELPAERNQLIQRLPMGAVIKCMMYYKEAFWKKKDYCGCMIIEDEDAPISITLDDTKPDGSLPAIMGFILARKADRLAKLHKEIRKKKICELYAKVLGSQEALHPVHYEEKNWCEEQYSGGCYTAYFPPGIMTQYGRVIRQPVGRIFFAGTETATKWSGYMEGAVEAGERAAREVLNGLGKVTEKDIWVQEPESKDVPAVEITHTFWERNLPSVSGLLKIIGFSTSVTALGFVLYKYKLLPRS
Particulars: cited from earlier work.

As usually defined, the IC50 is the concentration needed to halve the response being measured. As for `CN(C)c1ccc(/C=C2\Oc3cc(O)ccc3C2=O)cc1` [Compound T151742], the IC50 in assay [1] is 7.45 ± 1.12 µM; in assay [2], above 100 µM; in assay [3], 18.5 ± 14.7 µM. Moreover, the “inhibition of / activity against MAO-A” value in assay [4] is recorded as “showed activity”.

Source of the values: US20250064773A1, “TARGETING ERO1 ALPHA WITH AURONE DERIVATIVES” (West Virginia University Board of Governors on behalf of …, priority 2021, published 2025).
